Assay [1] addresses T1, Sterol O-acyltransferase 1 (Homo sapiens, UniProt P35610).
T1 sequence (P35610 whole entry): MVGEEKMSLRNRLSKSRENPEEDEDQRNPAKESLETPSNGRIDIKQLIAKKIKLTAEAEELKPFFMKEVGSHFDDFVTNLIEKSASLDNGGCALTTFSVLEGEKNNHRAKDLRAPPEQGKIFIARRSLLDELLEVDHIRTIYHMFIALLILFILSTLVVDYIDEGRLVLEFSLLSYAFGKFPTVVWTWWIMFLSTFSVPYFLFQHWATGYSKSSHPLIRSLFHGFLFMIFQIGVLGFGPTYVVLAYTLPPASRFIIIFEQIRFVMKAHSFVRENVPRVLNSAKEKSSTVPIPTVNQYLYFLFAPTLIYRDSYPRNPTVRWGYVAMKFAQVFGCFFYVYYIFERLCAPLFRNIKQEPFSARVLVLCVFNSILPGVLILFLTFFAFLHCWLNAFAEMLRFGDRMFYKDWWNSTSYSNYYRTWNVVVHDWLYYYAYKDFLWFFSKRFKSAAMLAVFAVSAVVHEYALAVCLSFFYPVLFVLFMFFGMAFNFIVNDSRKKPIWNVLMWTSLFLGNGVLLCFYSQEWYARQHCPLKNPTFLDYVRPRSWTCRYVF
Put plainly: Inhibition of ACAT1- mediated cholesteryl ester synthesis in macrophages.

For assay [2], the target named is T2, Sterol O-acyltransferase 1 (Homo sapiens) (UniProt P35610).
T2 sequence (whole entry): T1 sequence (P35610 whole entry)
As to the kind of experiment: Inhibition of ACAT1- mediated cholesteryl ester synthesis in macrophages up to 10 uM.

The structures appear in SMILES notation. Calls of active or inactive are those of the source. No cut-off for these calls is given here.

As for `CCCC[C@H](C)[C@@H]1CC(=O)N[C@@H](C(c2ccccc2)c2ccccc2)C2=N[C@H](CO2)C(=O)N[C@H](C2CCCCC2)C(=O)O1`, inhibition in assay [1] was half-maximal at 280 nM (IC50).

`CCCC[C@H](C)[C@@H]1CC(=O)N[C@@H](C(c2ccccc2)c2ccccc2)C(=O)N[C@H](Cn2cc(CNC(=O)CCCCNC(=O)CCCC[C@@H]3SC[C@@H]4NC(=O)N[C@@H]43)nn2)C(=O)N[C@H](C2CCCCC2)C(=O)O1` showed an IC50 in assay [1] of 800 nM. Also, the inhibition result in assay [2] was “inactive”.

The term IC50 denotes the midpoint of a concentration-inhibition curve. Lower therefore signals inhibition by little substance.

The record behind these values is ChEMBL document CHEMBL1932979, “Conformationally restricted analog and biotin-labeled probe based on beauveriolide III” (Bioorg Med Chem Lett, 2012).
